# From US20240033373A1, “TARGETED, INTRACELLULAR DELIVERY OF THERAPEUTIC PEPTIDES USING SUPRAMOLECULAR NANOMATERIALS” (The University of Chicago, priority 2020, published 2024)
# Where two headings read alike, the source gives them in different places.
# Assays:
# DLBCL cell lines = assay: Cell death assay (CellTiter-Glo 2.0), several lines stated together; format: cell-based, human
# Procedure: Plotted points are means of duplicates+/−S.E.M., normalized to an untreated control that received the same pre-treatment, and fitted using nonlinear regression.
# (§1) Cell Death Assays Treatments were prepared in 96-well plates in 50 μL at 2× concentration. Cells were suspended at 0.2 million cells per mL, and 50 μL (10,000 cells) were added to each well and pipette-mixed. The plates were incubated for 24-72 hours, depending on the experiment, then 100 μL of CellTiter-Glo 2.0 (Promega) was added and pipette-mixed, followed by luminescence reading (SpectraMax iD5, Molecular Devices).
# [1] = pipettable melt of PEG-SS—PPS and PEG(500)DME
# SU-DHL-5 = assay: Cell death assay (CellTiter-Glo 2.0); format: cell-based, human; conditions: 24 h ATSP-7041 pre-treatment, then BH3 mimetic
# Procedure: as §1
# (§2) First, SU-DHL-5 was treated with equivalent doses of SAH-MS1-18 either as a free drug, inside of αCD19- or αOspA-PSOMs, or on the outside of empty αCD19- or αOspA-PSOMs (FIG. 14A). […] Other DLBCL cell lines, including OCILy1, OCI-Ly3, and OCI-Ly8, were treated (FIG. 14B).
# OCI-Ly3 = assay: Cell death assay (CellTiter-Glo 2.0); format: cell-based, human; conditions: 24 h ATSP-7041 pre-treatment, then BH3 mimetic
# Procedure: as §1, §2
# [2] = 24 h ATSP-7041 pre-treatment vs vehicle, washed, then BH3 mimetic, WTp53 lines
SMILES,change in cell death sensitivity after p53-reactivation (DLBCL cell lines; [2]),solubility in polymer melt [1],change in cell death sensitivity after p53-reactivation (SU-DHL-5),change in cell death sensitivity after p53-reactivation (OCI-Ly3),change in cell death sensitivity after p53-reactivation (DLBCL cell lines)
Cc1c(-c2ccc(N3CCc4cccc(C(=O)Nc5nc6ccccc6s5)c4C3)nc2C(=O)O)cnn1CC12CC3CC(CC(C3)C1)C2 [A-1331852],no notable change in sensitivity,–,–,–,–
CC1(C)CCC(CN2CCN(c3ccc(C(=O)NS(=O)(=O)c4ccc(NCC5CCOCC5)c([N+](=O)[O-])c4)c(Oc4cnc5[nH]ccc5c4)c3)CC2)=C(c2ccc(Cl)cc2)C1 [ABT-199],no notable change in sensitivity,–,–,–,–
Cc1c(-c2c(-c3ccc(F)o3)sc3ncnc(O[C@H](Cc4ccccc4OCc4ccnn4CC(F)(F)F)C(=O)O)c23)ccc(OCCN2CCN(C)CC2)c1Cl [S63845],–,highly soluble,made much more sensitive,made much more sensitive,much more sensitive
